What all share (assay type): functional
The test system of assay [1] is Staphylococcus aureus. Description: Antimicrobial activity against Staphylococcus aureus at 100 ug by antimicrobial disk assay. The note with it: read-out: IZ.
The test system of assay [2] is Staphylococcus aureus. Description: Antimicrobial activity against Staphylococcus aureus at 25 ug by antimicrobial disk assay. Conditions: read-out: IZ.
In assay [3] the test system is Staphylococcus aureus. The experiment in a line: Antimicrobial activity against Staphylococcus aureus at 50 ug by antimicrobial disk assay. Conditions: read-out: IZ.
Assay [4] relates to Staphylococcus aureus. The experiment in a line: Antimicrobial activity against Staphylococcus aureus at 10 units by antimicrobial disk assay.
Assay [5] deals with Staphylococcus aureus. The experiment in a line: Antimicrobial activity against Staphylococcus aureus at 10 ug by antimicrobial disk assay. The note with it: read-out: IZ.
In assay [6] the test system is Staphylococcus aureus. The experiment in a line: Antimicrobial activity against Staphylococcus aureus at 30 ug by antimicrobial disk assay. The note with it: read-out: IZ.

On to `C/C=C/C1=C(C)C(=O)C(C)(O)O1` (centres undefined), for which, in the assay with Staphylococcus aureus [1], the zone of inhibition at 100 µg/disc was 9 mm.
As to `C/C=C(\C)C(=O)O[C@H]1C=CC(=O)O[C@H]1/C=C/C(=O)C(C)O` (some centres undefined), the zone of inhibition at 25 µg/disc with Staphylococcus aureus [2] was 22 mm.
For `C/C=C(\C)C(=O)O[C@H]1C=CC(=O)O[C@H]1CCC(=O)C(C)O` (some centres undefined) [6,7-DIHYDROPHOMOPSOLIDE A], the zone of inhibition at 50 µg/disc in the assay with Staphylococcus aureus [3] turned out to be 9 mm.
For `C/C=C(\C)C(=O)O[C@H]1C=CC(=O)O[C@H]1CC[C@H](O)[C@H](C)O` [6,7-DIHYDROPHOMOPSOLIDE B], the zone of inhibition at 100 µg/disc with Staphylococcus aureus [1] is 10 mm.
Turning to `CC1(C)S[C@@H]2[C@H](NC(=O)Cc3ccccc3)C(=O)N2[C@H]1C(=O)O` [PENICILLIN G], the “inhibition zone (IZ)” value with Staphylococcus aureus [4] was 22 mm.
Consider `C/C=C(\C)C(=O)O[C@H]1C=CC(=O)O[C@H]1/C=C\C(=O)C(C)O` (some centres undefined) [PHOMOPSOLIDE A], for which the zone of inhibition at 25 µg/disc in the assay on Staphylococcus aureus [2] was 22 mm.
Still for that read-out and setting: next, `C/C=C(\C)C(=O)O[C@H]1C=CC(=O)O[C@H]1/C=C/[C@H](O)[C@H](C)O` [PHOMOPSOLIDE B]: 20 mm.
As for `CN[C@@H]1[C@H](O[C@H]2[C@H](O[C@H]3[C@H](O)[C@@H](O)[C@H](N=C(N)N)[C@@H](O)[C@@H]3N=C(N)N)O[C@@H](C)[C@]2(O)C=O)O[C@@H](CO)[C@H](O)[C@H]1O` [STREPTOMYCIN], the zone of inhibition at 10 µg/disc in the assay with Staphylococcus aureus [5] stood at 13 mm.
Take `CN(C)[C@@H]1C(O)=C(C(N)=O)C(=O)[C@@]2(O)C(O)=C3C(=O)c4c(O)cccc4[C@@](C)(O)[C@H]3C[C@@H]12` [TETRACYCLINE]: the zone of inhibition at 30 µg/disc in the assay on Staphylococcus aureus [6] was 38 mm.

The values are drawn from ChEMBL document CHEMBL1158878, “New phomopsolides from a Penicillium sp” (1997).
